Experimental data reported in patent US12187717B2, “Compound and use thereof in treating autoimmune diseases” (PARENCHYMA BIOTECH INC., priority 2022, dated 2025).

Tests used:
[1] = Pharmacokinetic parameters after oral or intravenous administration; format: in vivo; conditions: rats
Description: For rats, an oral administration group was fasted for 16 hours, and an intravenous administration group was subjected to intravenous administration with 10 mL/kg of solution prepared by completely dissolving Compound 6 in an ethanol-Cremophor EL mixture corresponding to 7.5% (v/v) of the administered dose, and then diluting in phosphate buffered saline so as to be the final ethanol:Cremophor EL:phosphate buffered saline (0.375:0.375:9.25, v/v/v), without fasting, at the dose concentration listed in Table 3. The oral administration group was supplied with food about 4 hours after administration. Blood collection was performed on the intravenous administration group after 0.083, 0.5, 1, 2, 4, 8, 24 hours from the administration and on the oral administration group after 0.5, 1, 2, 4, 8, 12, 24 hours from the administration, and plasma was recovered using centrifugation. In the recovered plasma, the drug concentration in the plasma was measured using UHPLC-MS/MS method.

[2] = pH-metric solubility and logP (SIRIUS T3); format: physicochemical; conditions: pH-metric results, SIRIUS T3
Description: After dissolving Compound 6 in ethanol, the solubility was measured and analyzed using a SIRIUS T3 machine.

CYP1A2 = target: T1, CYP1A2 (Homo sapiens, UniProt P05177); assay: CYP isoenzyme activity; format: in vitro ADME; conditions: 10 μM
T1 sequence (P05177 1-516): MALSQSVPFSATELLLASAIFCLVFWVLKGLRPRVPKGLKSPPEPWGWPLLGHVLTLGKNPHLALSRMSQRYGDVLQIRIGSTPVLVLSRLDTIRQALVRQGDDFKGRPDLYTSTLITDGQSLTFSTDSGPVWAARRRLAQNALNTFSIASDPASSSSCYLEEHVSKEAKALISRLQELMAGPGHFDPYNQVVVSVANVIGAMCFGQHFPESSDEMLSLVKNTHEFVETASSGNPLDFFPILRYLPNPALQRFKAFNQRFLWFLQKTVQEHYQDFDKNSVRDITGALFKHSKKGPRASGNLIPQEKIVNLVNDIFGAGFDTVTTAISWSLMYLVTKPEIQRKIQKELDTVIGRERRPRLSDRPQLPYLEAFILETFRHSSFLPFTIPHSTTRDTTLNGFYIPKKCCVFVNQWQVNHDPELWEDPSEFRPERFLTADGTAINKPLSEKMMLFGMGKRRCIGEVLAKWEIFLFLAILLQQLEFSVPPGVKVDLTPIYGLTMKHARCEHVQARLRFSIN

CYP2C9 = CYP2C9 (Homo sapiens, UniProt P11712); assay: CYP isoenzyme activity; format: in vitro ADME; conditions: 10 μM
Chain of CYP2C9 (P11712 whole entry): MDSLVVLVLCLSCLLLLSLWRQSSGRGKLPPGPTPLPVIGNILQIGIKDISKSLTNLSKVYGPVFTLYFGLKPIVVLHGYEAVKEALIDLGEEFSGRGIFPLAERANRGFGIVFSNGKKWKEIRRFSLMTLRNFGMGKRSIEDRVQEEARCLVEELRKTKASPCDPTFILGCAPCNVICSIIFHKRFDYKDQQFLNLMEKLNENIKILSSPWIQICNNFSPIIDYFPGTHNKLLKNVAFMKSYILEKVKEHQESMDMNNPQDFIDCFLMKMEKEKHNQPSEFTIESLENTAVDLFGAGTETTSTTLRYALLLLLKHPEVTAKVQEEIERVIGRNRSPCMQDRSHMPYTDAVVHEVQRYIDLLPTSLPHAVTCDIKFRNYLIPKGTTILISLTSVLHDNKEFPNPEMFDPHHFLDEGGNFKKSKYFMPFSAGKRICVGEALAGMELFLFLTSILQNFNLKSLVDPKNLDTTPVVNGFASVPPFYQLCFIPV

CYP2C19 = CYP2C19 (Homo sapiens, UniProt P33261); assay: CYP isoenzyme activity; format: in vitro ADME; conditions: 10 μM
Chain of CYP2C19 (P33261 whole entry): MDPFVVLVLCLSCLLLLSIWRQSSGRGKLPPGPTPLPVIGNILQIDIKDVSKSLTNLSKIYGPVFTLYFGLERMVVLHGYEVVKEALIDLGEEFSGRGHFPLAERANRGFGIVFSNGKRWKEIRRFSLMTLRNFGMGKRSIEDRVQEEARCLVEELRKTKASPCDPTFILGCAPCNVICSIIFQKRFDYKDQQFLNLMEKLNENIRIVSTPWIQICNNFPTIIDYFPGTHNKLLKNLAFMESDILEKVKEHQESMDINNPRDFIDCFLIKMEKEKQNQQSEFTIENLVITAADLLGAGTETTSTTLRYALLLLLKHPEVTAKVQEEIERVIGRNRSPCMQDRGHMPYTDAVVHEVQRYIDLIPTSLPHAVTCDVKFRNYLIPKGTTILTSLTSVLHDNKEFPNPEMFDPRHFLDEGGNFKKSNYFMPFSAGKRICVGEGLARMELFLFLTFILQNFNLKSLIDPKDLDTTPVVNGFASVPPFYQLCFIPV

CYP3A4 = CYP3A4 (Homo sapiens, UniProt P08684); conditions: 2 days, 10 μM
Chain of CYP3A4 (P08684 whole entry): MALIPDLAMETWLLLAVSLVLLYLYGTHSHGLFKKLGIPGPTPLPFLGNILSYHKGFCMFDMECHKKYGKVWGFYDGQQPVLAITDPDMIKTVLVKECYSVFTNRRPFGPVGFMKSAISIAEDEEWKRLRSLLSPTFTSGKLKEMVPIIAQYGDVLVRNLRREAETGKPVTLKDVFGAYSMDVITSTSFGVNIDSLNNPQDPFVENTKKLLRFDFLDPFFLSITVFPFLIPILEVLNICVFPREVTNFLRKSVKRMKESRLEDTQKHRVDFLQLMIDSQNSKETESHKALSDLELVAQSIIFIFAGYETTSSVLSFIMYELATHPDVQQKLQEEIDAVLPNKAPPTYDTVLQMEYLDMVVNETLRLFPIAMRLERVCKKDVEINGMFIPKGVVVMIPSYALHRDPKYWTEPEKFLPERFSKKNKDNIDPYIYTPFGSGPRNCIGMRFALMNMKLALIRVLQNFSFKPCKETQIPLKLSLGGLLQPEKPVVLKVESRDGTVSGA
Description: Live human hepatocyte cell lines (Corning, Cat No. 454551) were collected using a plating medium, seeded on a 24-well plate so that a cell density thereof was 0.4×10^6 cells/well, and cultured for 2 to 4 hours. After replacing the plating medium with a hepatocyte culture medium, the hepatocytes were cultured for 24 hours. After culturing for 24 hours, hepatocytes were treated with Compound 6 at 1, 5, 25 µM. The medium containing the compound was changed every 24 hours for 2 days. The cultured cells were recovered to prepare mRNA samples. mRNA was extracted from the recovered cells by a phenol-chloroform sedimentation method using TRIZOL reagent (Invitrogen, Cat No. 15596018). From the isolated RNA, cDNA was synthesized by reverse transcription, followed by measuring drug metabolizing enzymes CYP1A2, CYP2C9, CYP2C19, CYP2B6, and CYP3A4 through real-time PCR analysis using the Quant Studio™ 7 Flex Real-Time PCR System (Applied Biosystems, CA). Relative values of the enzyme expression levels were compared by the ΔΔct method using GAPDH as a control enzyme. Herein, one (1) fold was set using the control. Results are expressed as % of control compared to control sample.

CYP2D6 = CYP2D6 (Homo sapiens, UniProt P10635); conditions: 2 days, 10 μM
Chain of CYP2D6 (P10635 whole entry): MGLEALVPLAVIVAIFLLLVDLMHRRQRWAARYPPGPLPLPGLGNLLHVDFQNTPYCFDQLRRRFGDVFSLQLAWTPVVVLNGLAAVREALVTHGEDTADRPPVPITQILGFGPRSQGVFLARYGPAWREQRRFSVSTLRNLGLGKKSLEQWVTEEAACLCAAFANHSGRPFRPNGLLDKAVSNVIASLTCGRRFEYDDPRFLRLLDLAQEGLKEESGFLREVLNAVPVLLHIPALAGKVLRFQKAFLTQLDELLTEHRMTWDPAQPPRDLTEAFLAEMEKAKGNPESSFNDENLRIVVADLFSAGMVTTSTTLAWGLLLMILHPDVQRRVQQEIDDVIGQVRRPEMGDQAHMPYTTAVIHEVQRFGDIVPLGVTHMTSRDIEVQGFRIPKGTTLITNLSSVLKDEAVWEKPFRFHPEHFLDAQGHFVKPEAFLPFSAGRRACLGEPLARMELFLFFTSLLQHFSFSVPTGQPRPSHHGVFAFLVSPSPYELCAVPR

[3] = rat, plasma, Intravenous (IV), 1 mg/kg
[4] = rat, plasma, Oral (PO), 10 mg/kg
[5] = rat, plasma, Oral (PO), 100 mg/kg
[6] = Oral (PO), 10 mg/kg (reference dose, dose ratio 1)
[7] = Oral (PO), 100 mg/kg relative to 10 mg/kg (dose ratio 10.0)

AUC(0-t) [1, 3]: 183 ng·h/mL
C0 [1, 3]: 406 ng/mL
clearance [1, 3]: 7.17 mL/min/kg
half-life [1, 3]: 48 min
Vd ([1]; rat, plasma, Intravenous (IV), 1 mg/kg, read-out: Vdss): 0.311 L/kg
AUC(0-t) [1, 4]: 366 ng·h/mL
Cmax [1, 4]: 126 ng/mL
Tmax [1, 4]: 60 min
half-life [1, 4]: 54 min
bioavailability ([1]; rat, plasma, Oral (PO), 10 mg/kg, read-out: Bioavailability (F %)): 20%
AUC(0-t) [1, 5]: 644 ng·h/mL
Cmax [1, 5]: 152 ng/mL
Tmax [1, 5]: 30 min
half-life [1, 5]: 408 min
AUClast Ratio [1, 6]: 1.0
Cmax ratio [1, 6]: 1.0
AUClast Ratio [1, 7]: 1.8
Cmax ratio [1, 7]: 1.2
logP [2]: 2.8
pH-metric solubility, Molarity [2]: 3.65 μM
pH-metric solubility, Weight/ml [2]: 1.248 μg/ml
CYP1A2 activity (CYP1A2): 64.6 % of Control Activity
CYP2C9 activity (CYP2C9): 91.9 % of Control Activity
CYP2C19 activity (CYP2C19): 24.4 % of Control Activity
inhibition of the enzyme activity of CYP2C19 (CYP2C19): 24.4%
CYP3A4 activity (CYP3A4): 107.6 % of Control Activity
CYP2D6 activity (CYP2D6): 93.3 % of Control Activity
SMILES: O=C(Cc1c[nH]c2ccc(Cl)cc12)Nc1nc2ccccc2s1 [Comparative Example 1, N-(benzo[d]thiazol-2-yl)-2-(5-chloro-1H-indol-3-yl)acetamide, reference compound]
